In patent US20170015555A1, “LONG-TERM PRESERVATION AND NOVEL APPLICATION OF CHLOROUS ACID AQUEOUS SOLUTION FORMULATION” (priority 2013, published 2017):

Legend:
Format in all cases: cell-based
[1] = test system: Bacillus cereus NBRC15305; test: Sterilizing effect on floor surface after wiping off imitation vomit, tatami mattress; details: 1000 ppm available chlorine
Source text: (§1) 1) Chlorous acid aqueous solution formulation (see Example 1: Table 11) Treatment sheet (material: 100% cotton): (about 27×40 cm) *Impregnated at a ratio of weight of treatment sheet (g): amount of liquid (ml)=1:3 2) Imitation vomit Miso solution: adjusted to pH of 2 with hydrochloric acid 3) Test Microbes that were Used E. coli: Escherichia coli IF03927 Staphylococcus aureus: Staphylococcus aureus IF0 12732 Thermoduric Microbes (Bacillus cereus): Bacillus cereus NBRC15305 Microbes of the genus Salmonella: Salmonella Enteritidis IF03313 Enterohemorrhagic Escherichia coli O157: Escherichia coli O157 Enterohemorrhagic Escherichia coli O111: Escherichia coli O111 Enterohemorrhagic Escherichia coli O26: Escherichia coli O26
(§2) (1) Imitation vomit was spread in an area about the size of an A4 sheet. (2) 5 dry sheets were laid thereon. (3) An agent solution was poured on the dry sheets to wipe off the imitation vomit. (4) A cotton swab was soaked with sterile saline. A portion where imitation vomit was spread was scrubbed with the cotton swab to collect microbes remaining on the floor. After suspending in saline, the solution was spread on a petri dish and cultured. The number of each of the microbes was measured. (5) Test operations 3 and 4 were repeated a total of 7 times (repeated until the imitation vomit could be removed completely).

[2] = test system: E. coli: Escherichia coli IF03927; test: as above; details: 1000 ppm available chlorine
Source text: as §1, §2

[3] = test system: Enterohemorrhagic Escherichia coli O111; test: as above; details: 1000 ppm
Source text: as §1, §2

[4] = test system: Enterohemorrhagic Escherichia coli O157; test: as above; details: 1000 ppm available chlorine
Source text: as §1, §2

[5] = test system: Enterohemorrhagic Escherichia coli O26; test: as above; details: 1000 ppm available chlorine
Source text: as §1, §2

[6] = test system: Microbes of the genus Salmonella: Salmonella Enteritidis IF03313; test: as above; details: 1000 ppm available chlorine
Source text: as §1, §2

[7] = test system: Staphylococcus aureus IF0 12732; test: as above; details: 1000 ppm available chlorine
Source text: as §1, §2

[8] = test system: Bacillus cereus NBRC15305; test: Sterilizing effect on floor surface after wiping off imitation vomit, carpet
Source text: as §1, §2

[9] = test system: E. coli: Escherichia coli IF03927; test: as above; details: 1000 ppm available chlorine
Source text: as §1, §2

[10] = test system: Enterohemorrhagic Escherichia coli O111; test: as above
Source text: as §1, §2

[11] = test system: Enterohemorrhagic Escherichia coli O157; test: as above; details: 1000 ppm available chlorine
Source text: as §1, §2

[12] = test system: Enterohemorrhagic Escherichia coli O26; test: as above; details: 1000 ppm available chlorine
Source text: as §1, §2

[13] = test system: Staphylococcus aureus IF0 12732; test: as above; details: 1000 ppm available chlorine
Source text: as §1, §2

[14] = test system: pathogenic microbes; test: Preventing secondary contamination upon treating vomit, summary over all tested microbes
Source text: 1) Chlorous acid aqueous solution formulation (see Example 1: Table 11) Treatment sheet (material: 100% cotton): (about 27×40 cm) *Impregnated at a ratio of weight of treatment sheet (g): amount of liquid (ml)=1:3 2) Imitation vomit (hereinafter, referred to as vomit) Miso solution: adjusted to pH 2 with hydrochloric acid 3) Test Microbes that were used E. coli: Escherichia coli IF03927 Staphylococcus aureus: Staphylococcus aureus IF0 12732 Thermoduric Microbes (Bacillus cereus): Bacillus cereus NBRC15305 Microbes of the genus Salmonella: Salmonella Enteritidis IF03313 Enterohemorrhagic Escherichia coli 0157: Escherichia coli 0157 Enterohemorrhagic Escherichia coli 0111: Escherichia coli 0111 Enterohemorrhagic Escherichia coli 026: Escherichia coli O26
Permeability of pathogenic microbes into a treatment sheet when treating vomit was examined to compare effects of preventing secondary contamination. (1) Imitation vomit is spread in an area about the size of an A4 sheet. (2) 30 agent solution-containing treatment sheets were laid thereon and left standing for 10 minutes. (3) Treatment sheets were removed one at a time from the top. After diluting with saline, the sample was spread in a petri dish and cultured.

[15] = stored at 25° C. Day 0, 1000 ppm available chlorine
[16] = stored at 25° C. Day 7, Sodium Hypochlorite, 0 ppm
[17] = stored at 25° C. Day 0, 1000 ppm

SMILES: OCl [Sodium Hypochlorite, sodium hypochlorite]
- microbes remaining, wiped 1 Time ([1]; stored at 25° C. Day 0): <10
- microbes remaining, wiped 2 Times ([1]; stored at 25° C. Day 0): <10
- microbes remaining, wiped 3 Times ([1]; stored at 25° C. Day 0): <10
- microbes remaining, wiped 1 Time ([1]; stored at 25° C. Day 7): <10
- microbes remaining, wiped 2 Times ([1]; stored at 25° C. Day 7): <10
- microbes remaining, wiped 3 Times ([1]; stored at 25° C. Day 7): <10
- microbes remaining, wiped 1 Time ([2]; stored at 25° C. Day 0): <10
- microbes remaining, wiped 2 Times ([2]; stored at 25° C. Day 0): <10
- microbes remaining, wiped 3 Times ([2]; stored at 25° C. Day 0): <10
- microbes remaining, wiped 1 Time ([2]; stored at 25° C. Day 7): <10
- microbes remaining, wiped 2 Times ([2]; stored at 25° C. Day 7): <10
- microbes remaining, wiped 3 Times ([2]; stored at 25° C. Day 7): <10
- Number of Times Wiped 1 Time (remaining microbes) ([3]; stored at 25° C. Day 0): <10
- Number of Times Wiped 2 Times (remaining microbes) ([3]; stored at 25° C. Day 0): <10
- Number of Times Wiped 3 Times (remaining microbes) ([3]; stored at 25° C. Day 0): <10
- Number of Times Wiped 1 Time (remaining microbes) ([3]; stored at 25° C. Day 7): <10
- Number of Times Wiped 2 Times (remaining microbes) ([3]; stored at 25° C. Day 7): <10
- Number of Times Wiped 3 Times (remaining microbes) ([3]; stored at 25° C. Day 7): <10
- Number of Times Wiped 1 Time (remaining microbes) ([4]; stored at 25° C. Day 0): <10
- Number of Times Wiped 2 Times (remaining microbes) ([4]; stored at 25° C. Day 0): <10
- Number of Times Wiped 3 Times (remaining microbes) ([4]; stored at 25° C. Day 0): <10
- Number of Times Wiped 1 Time (remaining microbes) ([4]; stored at 25° C. Day 7): <10
- Number of Times Wiped 2 Times (remaining microbes) ([4]; stored at 25° C. Day 7): <10
- Number of Times Wiped 3 Times (remaining microbes) ([4]; stored at 25° C. Day 7): <10
- Number of Times Wiped 1 Time (remaining microbes) ([5]; stored at 25° C. Day 0): <10
- Number of Times Wiped 2 Times (remaining microbes) ([5]; stored at 25° C. Day 0): <10
- Number of Times Wiped 3 Times (remaining microbes) ([5]; stored at 25° C. Day 0): <10
- Number of Times Wiped 1 Time (remaining microbes) ([5]; stored at 25° C. Day 7): 8.8 × 10^3
- Number of Times Wiped 2 Times (remaining microbes) ([5]; stored at 25° C. Day 7): 4.9 × 10^3
- Number of Times Wiped 3 Times (remaining microbes) ([5]; stored at 25° C. Day 7): 3.0 × 10^3
- microbes remaining, wiped 1 Time ([6]; stored at 25° C. Day 0): <10
- microbes remaining, wiped 2 Times ([6]; stored at 25° C. Day 0): <10
- microbes remaining, wiped 3 Times ([6]; stored at 25° C. Day 0): <10
- microbes remaining, wiped 1 Time ([6]; stored at 25° C. Day 7): 1.5 × 10^3
- microbes remaining, wiped 2 Times ([6]; stored at 25° C. Day 7): 7.7 × 10^2
- microbes remaining, wiped 3 Times ([6]; stored at 25° C. Day 7): 1.8 × 10^2
- microbes remaining, wiped 1 Time ([7]; stored at 25° C. Day 0): <10
- microbes remaining, wiped 2 Times ([7]; stored at 25° C. Day 0): <10
- microbes remaining, wiped 3 Times ([7]; stored at 25° C. Day 0): <10
- microbes remaining, wiped 1 Time ([7]; stored at 25° C. Day 7): <10
- microbes remaining, wiped 2 Times ([7]; stored at 25° C. Day 7): <10
- microbes remaining, wiped 3 Times ([7]; stored at 25° C. Day 7): <10
- Number of Times Wiped 1 Time (remaining microbes) [8, 15]: <10
- Number of Times Wiped 2 Times (remaining microbes) [8, 15]: <10
- Number of Times Wiped 3 Times (remaining microbes) [8, 15]: <10
- Number of Times Wiped 1 Time (remaining microbes) [8, 16]: 6.7 × 10^3
- Number of Times Wiped 2 Times (remaining microbes) [8, 16]: 5.2 × 10^3
- Number of Times Wiped 3 Times (remaining microbes) [8, 16]: 4.9 × 10^3
- Number of Times Wiped 7 Times (remaining microbes) [8, 16]: 2.0 × 10^3
- Number of Times Wiped 1 Time (remaining microbes) ([9]; stored at 25° C. Day 0): <10
- Number of Times Wiped 2 Times (remaining microbes) ([9]; stored at 25° C. Day 0): <10
- Number of Times Wiped 3 Times (remaining microbes) ([9]; stored at 25° C. Day 0): <10
- Number of Times Wiped 1 Time (remaining microbes) ([9]; stored at 25° C. Day 7): <10
- Number of Times Wiped 2 Times (remaining microbes) ([9]; stored at 25° C. Day 7): <10
- Number of Times Wiped 3 Times (remaining microbes) ([9]; stored at 25° C. Day 7): <10
- Number of Times Wiped 1 Time (remaining microbes) [10, 17]: <10
- Number of Times Wiped 2 Times (remaining microbes) [10, 17]: <10
- Number of Times Wiped 3 Times (remaining microbes) [10, 17]: <10
- Number of Times Wiped 1 Time (remaining microbes) [10, 16]: 2.3 × 10^3
- Number of Times Wiped 2 Times (remaining microbes) [10, 16]: 1.9 × 10^3
- Number of Times Wiped 3 Times (remaining microbes) [10, 16]: 1.1 × 10^3
- Number of Times Wiped 1 Time (remaining microbes) ([11]; stored at 25° C. Day 0): <10
- Number of Times Wiped 2 Times (remaining microbes) ([11]; stored at 25° C. Day 0): <10
- Number of Times Wiped 3 Times (remaining microbes) ([11]; stored at 25° C. Day 0): <10
- Number of Times Wiped 1 Time (remaining microbes) ([11]; stored at 25° C. Day 7): <10
- Number of Times Wiped 2 Times (remaining microbes) ([11]; stored at 25° C. Day 7): <10
- Number of Times Wiped 3 Times (remaining microbes) ([11]; stored at 25° C. Day 7): <10
- Microbes remaining on floor surface, wiped 1 Time ([12]; Day 0 at 25° C.): <10
- Microbes remaining on floor surface, wiped 2 Times ([12]; Day 0 at 25° C.): <10
- Microbes remaining on floor surface, wiped 3 Times ([12]; Day 0 at 25° C.): <10
- Microbes remaining on floor surface, wiped 1 Time ([12]; Day 7 at 25° C.): 8.8 × 10^3
- Microbes remaining on floor surface, wiped 2 Times ([12]; Day 7 at 25° C.): 4.9 × 10^3
- Microbes remaining on floor surface, wiped 3 Times ([12]; Day 7 at 25° C.): 3.0 × 10^3
- Number of Times Wiped 1 Time (remaining microbes) ([13]; stored at 25° C. Day 0): <10
- Number of Times Wiped 2 Times (remaining microbes) ([13]; stored at 25° C. Day 0): <10
- Number of Times Wiped 3 Times (remaining microbes) ([13]; stored at 25° C. Day 0): <10
- Number of Times Wiped 1 Time (remaining microbes) ([13]; stored at 25° C. Day 7): <10
- Number of Times Wiped 2 Times (remaining microbes) ([13]; stored at 25° C. Day 7): <10
- Number of Times Wiped 3 Times (remaining microbes) ([13]; stored at 25° C. Day 7): <10
- sterilization/removal of pathogenic microbes in stacked treatment sheets [14]: able to sterilize pathogenic microbes from the first sheet
